ChEMBL document CHEMBL5537174, “Discovery of Potent SOS1 PROTACs with Effective Antitumor Activities against NCI-H358 Tumor Cells In Vitro/In Vivo” (J Med Chem, 2024)
Active and inactive are the calls of the source. The rule behind the calls is not given here.

Assays:
[1] = test system: NCI-H358; experiment: Antiproliferative activity against human NCI-H358 cells assessed as inhibition of cell proliferation incubated for 7 days by celltiter-glo 3D assay; type: functional, cell-based; settings: NCI-H358, 168 h
[2] = biological target: T1, Protein cereblon/Son of sevenless homolog 1 (Homo sapiens, UniProt Q07889+Q96SW2); experiment: PROTAC activity at CRBN/SOS1 in human NCI-H358 cells assessed as induction of SOS1 degradation incubated for 6 hrs by Western blotting analysis; type: cell-based; settings: read-out: DC50
Target sequence in this assay (Q07889 whole entry): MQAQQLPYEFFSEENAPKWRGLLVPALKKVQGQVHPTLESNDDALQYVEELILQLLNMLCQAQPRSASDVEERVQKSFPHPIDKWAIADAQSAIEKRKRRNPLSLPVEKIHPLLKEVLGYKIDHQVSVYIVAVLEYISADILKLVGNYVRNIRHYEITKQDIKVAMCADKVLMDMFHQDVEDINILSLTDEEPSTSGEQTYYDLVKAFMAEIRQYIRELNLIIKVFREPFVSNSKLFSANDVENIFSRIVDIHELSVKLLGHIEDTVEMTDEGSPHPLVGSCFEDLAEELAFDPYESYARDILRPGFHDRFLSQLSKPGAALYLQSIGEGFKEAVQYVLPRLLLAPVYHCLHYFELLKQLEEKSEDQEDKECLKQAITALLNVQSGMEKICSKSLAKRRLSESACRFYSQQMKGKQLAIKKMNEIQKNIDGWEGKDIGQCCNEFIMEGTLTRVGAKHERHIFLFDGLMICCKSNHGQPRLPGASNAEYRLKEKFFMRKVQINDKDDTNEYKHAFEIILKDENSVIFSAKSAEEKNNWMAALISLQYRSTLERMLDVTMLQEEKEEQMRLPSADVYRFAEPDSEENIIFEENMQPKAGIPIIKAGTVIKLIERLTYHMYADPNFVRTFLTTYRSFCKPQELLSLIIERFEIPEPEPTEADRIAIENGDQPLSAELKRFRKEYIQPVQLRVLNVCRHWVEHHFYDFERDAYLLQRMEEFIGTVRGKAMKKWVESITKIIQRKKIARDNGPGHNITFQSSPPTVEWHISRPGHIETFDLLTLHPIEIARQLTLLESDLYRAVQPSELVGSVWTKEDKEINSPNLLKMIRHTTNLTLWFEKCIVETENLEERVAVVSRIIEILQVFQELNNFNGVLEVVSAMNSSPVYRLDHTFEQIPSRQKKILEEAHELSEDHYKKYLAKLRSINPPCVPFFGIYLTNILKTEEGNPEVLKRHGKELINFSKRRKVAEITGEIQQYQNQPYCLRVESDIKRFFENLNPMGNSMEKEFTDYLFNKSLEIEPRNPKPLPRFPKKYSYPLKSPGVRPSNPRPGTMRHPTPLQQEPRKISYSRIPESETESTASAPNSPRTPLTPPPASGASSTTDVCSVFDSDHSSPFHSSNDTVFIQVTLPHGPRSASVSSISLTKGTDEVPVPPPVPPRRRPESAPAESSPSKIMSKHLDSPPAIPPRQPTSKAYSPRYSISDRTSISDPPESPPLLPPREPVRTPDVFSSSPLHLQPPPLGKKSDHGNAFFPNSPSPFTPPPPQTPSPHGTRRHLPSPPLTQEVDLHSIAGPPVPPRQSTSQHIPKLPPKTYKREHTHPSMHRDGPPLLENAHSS
Target sequence in this assay (Q96SW2 whole entry): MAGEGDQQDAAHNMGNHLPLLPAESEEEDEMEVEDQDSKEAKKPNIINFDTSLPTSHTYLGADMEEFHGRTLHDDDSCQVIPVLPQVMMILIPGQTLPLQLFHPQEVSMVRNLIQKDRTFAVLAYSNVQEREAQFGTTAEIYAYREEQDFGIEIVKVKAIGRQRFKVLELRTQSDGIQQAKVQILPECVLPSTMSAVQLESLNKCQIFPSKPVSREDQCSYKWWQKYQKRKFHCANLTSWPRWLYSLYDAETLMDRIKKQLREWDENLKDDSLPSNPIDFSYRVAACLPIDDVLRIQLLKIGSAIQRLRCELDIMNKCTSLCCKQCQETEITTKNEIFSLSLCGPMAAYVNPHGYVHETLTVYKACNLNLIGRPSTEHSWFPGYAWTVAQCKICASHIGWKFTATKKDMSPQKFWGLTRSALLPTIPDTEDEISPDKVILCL

[3] = test system: NCI-H358; experiment: Potency index, ratio of test compound IC50 to BI3406 IC50 for antiproliferative activity against human NCI-H358 cells assessed as inhibition of cell proliferation incubated for 7 days by celltiter-glo 3D assay; type: functional; settings: time 7 day
[4] = biological target: T1, Protein cereblon/Son of sevenless homolog 1; experiment: PROTAC activity at CRBN/SOS1 in human NCI-H358 cells assessed as induction of SOS1 degradation at 0.1 to 1 uM incubated for 6 hrs by Western blotting analysis; type: cell-based; settings: dose 0.1-1 µM
Target sequence in this assay (Q07889 whole entry, looked up): as the sequence (Q07889 whole entry) above
Target sequence in this assay (Q96SW2 whole entry, looked up): as the sequence (Q96SW2 whole entry) above

[5] = biological target: T1, Protein cereblon/Son of sevenless homolog 1; experiment: PROTAC activity at CRBN/SOS1 in human NCI-H358 cells assessed as induction of SOS1 degradation at > 1 uM incubated for 6 hrs by Western blotting analysis; type: cell-based
Target sequence in this assay (Q07889 whole entry, looked up): as the sequence (Q07889 whole entry) above
Target sequence in this assay (Q96SW2 whole entry, looked up): as the sequence (Q96SW2 whole entry) above

[6] = test system: NCI-H358; experiment: Antiproliferative activity against human NCI-H358 cells harboring G12C mutant assessed as inhibition of cell proliferation incubated for 7 days by celltiter-glo 3D assay; type: functional, cell-based; settings: NCI-H358, 168 h
[7] = Antiproliferative activity against human GP2d cells harboring G12D mutant assessed as inhibition of cell proliferation incubated for 7 days by celltiter-glo 3D assay; type: functional, cell-based; settings: 168 h
[8] = test system: NCI-H441; experiment: Antiproliferative activity against human NCI-H441 cells harboring G12V mutant assessed as inhibition of cell proliferation incubated for 7 days by celltiter-glo 3D assay; type: functional, cell-based; settings: NCI-H441, 168 h
[9] = test system: DLD-1; experiment: Antiproliferative activity against human DLD-1 cells harboring G13D mutant assessed as inhibition of cell proliferation incubated for 7 days by celltiter-glo 3D assay; type: functional, cell-based; settings: DLD-1, 168 h
[10] = Tmax in BALB/c nude mouse at 10 mg/kg, ip measured upto 24 hrs by LC-MS/MS analysis; type: ADME, organism-based; settings: in vivo
[11] = AUC (0 to t) in BALB/c nude mouse at 10 mg/kg, ip measured upto 24 hrs by LC-MS/MS analysis; type: ADME, organism-based; settings: in vivo
[12] = Cmax in BALB/c nude mouse at 10 mg/kg, ip measured upto 24 hrs by LC-MS/MS analysis; type: ADME, organism-based; settings: in vivo
[13] = AUC (0 to infinity) in BALB/c nude mouse at 10 mg/kg, ip measured upto 24 hrs by LC-MS/MS analysis; type: ADME, organism-based; settings: in vivo
[14] = Half life in BALB/c nude mouse at 10 mg/kg, ip measured upto 24 hrs by LC-MS/MS analysis; type: ADME, organism-based; settings: in vivo
[15] = biological target: Voltage-gated inwardly rectifying potassium channel KCNH2 (Homo sapiens, UniProt Q12809); experiment: Inhibition of hERG at -80 mV holding potential by whole cell patch clamp recording assay; type: toxicity
[16] = biological target: Cytochrome P450 3A4 (Homo sapiens, UniProt P08684); experiment: Inhibition of CYP3A4 in human liver microsome preincubated with compound for 5 mins followed by NADPH addition and measured after 5 mins by LC-MS/MS analysis; type: ADME, microsomes
[17] = test system: NCI-H358; experiment: Antitumor activity against human NCI-H358 cells xenografted in BALB/c nude mouse assessed as tumor growth inhibition at 30 mg/kg, ip measured twice daily for 21 days; type: functional; settings: NCI-H358, 504 h, time 21 day, read-out: TGI
[18] = Toxicity in BALB/c nude mouse xenografted with human NCI-H358 cells assessed as body weight loss at 30 mg/kg, ip measured every 3 days for 21 days; type: organism-based; settings: in vivo, 504 h, time 21 day

Chain of Cytochrome P450 3A4 (P08684 whole entry): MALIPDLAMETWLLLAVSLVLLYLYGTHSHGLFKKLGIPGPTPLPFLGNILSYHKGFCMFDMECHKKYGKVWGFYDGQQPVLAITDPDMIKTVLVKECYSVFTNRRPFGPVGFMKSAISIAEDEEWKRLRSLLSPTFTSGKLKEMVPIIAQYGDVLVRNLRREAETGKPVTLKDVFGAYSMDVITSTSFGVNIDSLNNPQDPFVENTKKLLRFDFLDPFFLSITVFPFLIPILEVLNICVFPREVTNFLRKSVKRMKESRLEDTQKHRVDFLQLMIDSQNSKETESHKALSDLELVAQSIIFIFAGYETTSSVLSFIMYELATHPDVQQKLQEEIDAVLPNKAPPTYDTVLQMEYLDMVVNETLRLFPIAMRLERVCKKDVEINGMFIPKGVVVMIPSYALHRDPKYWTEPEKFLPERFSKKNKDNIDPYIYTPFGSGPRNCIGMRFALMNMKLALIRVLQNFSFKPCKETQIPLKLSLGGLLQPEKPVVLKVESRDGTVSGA
Chain of Voltage-gated inwardly rectifying potassium channel KCNH2 (Q12809 whole entry): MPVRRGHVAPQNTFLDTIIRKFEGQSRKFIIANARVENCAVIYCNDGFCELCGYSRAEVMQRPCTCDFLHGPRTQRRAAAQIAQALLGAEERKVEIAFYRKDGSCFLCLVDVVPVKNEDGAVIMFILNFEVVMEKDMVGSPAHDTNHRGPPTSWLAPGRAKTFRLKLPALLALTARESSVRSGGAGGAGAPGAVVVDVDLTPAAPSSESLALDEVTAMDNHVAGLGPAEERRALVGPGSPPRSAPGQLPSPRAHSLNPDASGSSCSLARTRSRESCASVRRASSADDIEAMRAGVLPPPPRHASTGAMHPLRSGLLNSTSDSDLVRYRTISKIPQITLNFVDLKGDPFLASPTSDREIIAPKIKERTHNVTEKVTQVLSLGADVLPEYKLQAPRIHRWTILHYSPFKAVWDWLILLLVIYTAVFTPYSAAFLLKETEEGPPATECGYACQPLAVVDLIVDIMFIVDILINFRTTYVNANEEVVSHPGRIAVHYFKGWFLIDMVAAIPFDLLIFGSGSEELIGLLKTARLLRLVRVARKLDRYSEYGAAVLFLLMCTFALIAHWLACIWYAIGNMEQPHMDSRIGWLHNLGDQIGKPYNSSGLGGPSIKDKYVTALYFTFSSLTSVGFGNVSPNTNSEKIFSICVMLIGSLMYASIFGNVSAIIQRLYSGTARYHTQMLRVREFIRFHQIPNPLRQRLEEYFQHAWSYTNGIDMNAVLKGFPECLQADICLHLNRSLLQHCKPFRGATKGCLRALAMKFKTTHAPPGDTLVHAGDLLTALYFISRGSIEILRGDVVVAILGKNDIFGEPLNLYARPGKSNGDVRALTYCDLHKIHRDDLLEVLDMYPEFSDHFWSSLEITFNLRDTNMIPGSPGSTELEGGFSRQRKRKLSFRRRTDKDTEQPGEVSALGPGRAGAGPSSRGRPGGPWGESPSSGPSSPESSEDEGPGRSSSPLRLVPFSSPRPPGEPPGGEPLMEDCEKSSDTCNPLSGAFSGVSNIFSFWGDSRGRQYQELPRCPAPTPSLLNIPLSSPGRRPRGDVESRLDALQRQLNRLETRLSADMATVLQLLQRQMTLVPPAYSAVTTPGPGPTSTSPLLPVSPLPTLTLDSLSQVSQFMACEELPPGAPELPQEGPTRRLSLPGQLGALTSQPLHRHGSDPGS

IC50 [1]: 0.005 µM
DC50 [2]: 0.013 µM
Activity [4]: Active
Activity [5]: inactive
IC50 [6]: 0.005 µM
IC50 [8]: 0.043 µM
IC50 [9]: 0.063 µM
Tmax [10]: 1 h
AUC(0-t) at 24 h [11]: 4370 ng·h/mL
Cmax [12]: 1870 ng/mL
AUC(0-inf) [13]: 4380 ng·h/mL
half-life [14]: 4.05 h
IC50 [16]: 0.32 µM
Compound: COc1cc2nc(C)nc(N[C@H](C)c3cc(N)cc(C(F)(F)F)c3)c2cc1OCC1(CN(C)C(=O)CCCCCCNc2cccc3c2C(=O)N(C2CCC(=O)NC2=O)C3=O)CC1 (stereo partly drawn)
Ratio IC50 [3]: 5
IC50 [7]: 2.15 µM
IC50 [15]: > 30 µM
inhibition in vivo at 30 mg/kg [17]: 58.8%
Activity [18]: Non-Toxic
